Test results: ChEMBL document CHEMBL1201862, “PubChem BioAssay data set” (2004)
The source made the active and inactive calls.

What was measured:
[1] = target: T1, Caspase-3 (Homo sapiens, UniProt P42574); experiment: human caspase-3 protease activity blockade – biochemical, fluorescence, cherry-picked samples, selectivity assay for caspase-6 allosteric inhibitor project, dose response (AID 743291)
T1 sequence (P42574 whole entry): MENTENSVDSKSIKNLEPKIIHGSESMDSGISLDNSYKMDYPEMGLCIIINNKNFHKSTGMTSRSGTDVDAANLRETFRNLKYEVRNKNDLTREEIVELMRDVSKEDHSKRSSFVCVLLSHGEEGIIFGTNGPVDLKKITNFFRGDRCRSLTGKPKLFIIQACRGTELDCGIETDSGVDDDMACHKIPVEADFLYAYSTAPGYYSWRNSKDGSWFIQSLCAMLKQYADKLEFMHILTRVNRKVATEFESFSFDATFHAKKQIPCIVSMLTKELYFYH

[2] = target: T2, Histone-lysine N-methyltransferase NSD2 (Homo sapiens, UniProt O96028); type: biochemical
T2 sequence (O96028 whole entry): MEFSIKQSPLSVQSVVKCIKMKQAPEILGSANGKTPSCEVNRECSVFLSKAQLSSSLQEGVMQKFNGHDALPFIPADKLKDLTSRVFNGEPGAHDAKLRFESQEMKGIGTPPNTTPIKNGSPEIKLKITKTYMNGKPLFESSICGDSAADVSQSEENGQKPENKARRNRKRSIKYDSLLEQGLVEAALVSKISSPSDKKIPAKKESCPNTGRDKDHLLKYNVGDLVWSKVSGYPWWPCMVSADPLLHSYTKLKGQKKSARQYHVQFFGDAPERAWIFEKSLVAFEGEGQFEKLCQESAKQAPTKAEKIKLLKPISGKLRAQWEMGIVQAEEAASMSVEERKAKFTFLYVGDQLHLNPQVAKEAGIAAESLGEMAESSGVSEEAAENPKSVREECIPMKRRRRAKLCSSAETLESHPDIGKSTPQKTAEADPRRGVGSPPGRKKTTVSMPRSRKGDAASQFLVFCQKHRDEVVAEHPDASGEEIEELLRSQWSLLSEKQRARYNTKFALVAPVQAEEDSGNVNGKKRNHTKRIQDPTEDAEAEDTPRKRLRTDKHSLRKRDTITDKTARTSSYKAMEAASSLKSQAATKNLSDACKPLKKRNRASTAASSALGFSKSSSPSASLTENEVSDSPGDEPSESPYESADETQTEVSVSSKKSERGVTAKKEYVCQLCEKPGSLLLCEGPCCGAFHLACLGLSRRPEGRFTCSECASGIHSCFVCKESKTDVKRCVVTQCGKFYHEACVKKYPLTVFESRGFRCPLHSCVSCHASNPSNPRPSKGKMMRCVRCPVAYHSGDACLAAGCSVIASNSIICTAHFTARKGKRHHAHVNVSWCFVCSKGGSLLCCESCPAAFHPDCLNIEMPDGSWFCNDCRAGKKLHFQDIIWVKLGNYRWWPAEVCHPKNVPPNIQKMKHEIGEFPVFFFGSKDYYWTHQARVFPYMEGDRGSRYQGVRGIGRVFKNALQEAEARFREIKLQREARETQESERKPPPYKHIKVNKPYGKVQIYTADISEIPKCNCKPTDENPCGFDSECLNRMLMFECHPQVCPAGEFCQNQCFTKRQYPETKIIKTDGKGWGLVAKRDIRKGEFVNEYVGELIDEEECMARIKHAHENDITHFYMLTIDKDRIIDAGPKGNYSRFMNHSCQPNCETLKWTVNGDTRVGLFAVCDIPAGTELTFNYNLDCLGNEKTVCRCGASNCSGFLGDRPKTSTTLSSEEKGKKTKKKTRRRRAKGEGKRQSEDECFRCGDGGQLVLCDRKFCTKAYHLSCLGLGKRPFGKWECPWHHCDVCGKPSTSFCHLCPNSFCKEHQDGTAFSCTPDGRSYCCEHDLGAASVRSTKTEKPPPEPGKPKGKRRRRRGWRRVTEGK

[3] = target: Caspase-7 (Homo sapiens, UniProt P55210); experiment: caspase-7 enzyme inhibition, selectivity check – biochemical, DEVD-R110 fluorescence, cherry-pick, selectivity assay for caspase-6 inhibitor project, dose response (AID 743295); type: functional
[4] = target: T3, Caspase-6 (Homo sapiens, UniProt P55212); experiment: inhibition of CASP6 peptide cleavage – biochemical, VEID-R110 fluorescence, cherry-pick, dose response (AID 720632)
T3 sequence (P55212 whole entry): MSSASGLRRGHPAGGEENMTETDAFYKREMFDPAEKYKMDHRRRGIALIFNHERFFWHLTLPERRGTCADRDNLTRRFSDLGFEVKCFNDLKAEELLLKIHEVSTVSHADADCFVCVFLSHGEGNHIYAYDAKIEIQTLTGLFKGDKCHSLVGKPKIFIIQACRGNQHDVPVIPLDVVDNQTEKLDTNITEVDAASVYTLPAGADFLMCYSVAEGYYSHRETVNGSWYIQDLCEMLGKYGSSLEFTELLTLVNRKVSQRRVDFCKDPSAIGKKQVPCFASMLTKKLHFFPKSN

[5] = target: T4, Carboxy-terminal domain RNA polymerase II polypeptide A small phosphatase 1 (Homo sapiens, UniProt Q9GZU7); experiment: CTDSP1 inhibitors, concentration-response, biochemical, absorbance readout, ultra-high-throughput screen actives (AID 540297); type: functional
T4 sequence (Q9GZU7 whole entry): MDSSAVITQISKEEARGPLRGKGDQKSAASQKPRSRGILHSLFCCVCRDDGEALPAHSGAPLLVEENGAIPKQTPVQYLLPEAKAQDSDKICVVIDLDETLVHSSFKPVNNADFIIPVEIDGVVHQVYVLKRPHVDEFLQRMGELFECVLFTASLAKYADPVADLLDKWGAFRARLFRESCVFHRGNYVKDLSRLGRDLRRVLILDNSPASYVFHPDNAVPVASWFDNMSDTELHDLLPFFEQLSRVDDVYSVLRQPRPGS

[6] = target: T5, RNA-binding protein pos-1 (Caenorhabditis elegans, UniProt G5EF15); experiment: disruptors of C. elegans POS-1 RNA interaction – biochemical, fluorescence polarization, dose response (AID 1964);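 note: purified POS-1 fused to maltose binding protein made in E. coli; potency of compounds blocking POS-1 binding to fluorescent RNA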
T5 sequence (G5EF15 whole entry): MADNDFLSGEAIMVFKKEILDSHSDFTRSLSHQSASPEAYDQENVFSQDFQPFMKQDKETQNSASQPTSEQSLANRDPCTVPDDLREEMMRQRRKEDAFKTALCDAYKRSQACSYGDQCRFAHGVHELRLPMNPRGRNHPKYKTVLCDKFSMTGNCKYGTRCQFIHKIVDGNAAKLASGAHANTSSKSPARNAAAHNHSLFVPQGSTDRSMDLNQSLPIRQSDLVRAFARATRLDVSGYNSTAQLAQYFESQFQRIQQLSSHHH

[7] = target: T6, Zinc finger protein mex-5 (Caenorhabditis elegans, UniProt Q9XUB2); experiment: potency of MEX-5 RNA-binding blockers – biochemical, C. elegans, fluorescence polarization, dose response (AID 1960)
T6 sequence (Q9XUB2 whole entry): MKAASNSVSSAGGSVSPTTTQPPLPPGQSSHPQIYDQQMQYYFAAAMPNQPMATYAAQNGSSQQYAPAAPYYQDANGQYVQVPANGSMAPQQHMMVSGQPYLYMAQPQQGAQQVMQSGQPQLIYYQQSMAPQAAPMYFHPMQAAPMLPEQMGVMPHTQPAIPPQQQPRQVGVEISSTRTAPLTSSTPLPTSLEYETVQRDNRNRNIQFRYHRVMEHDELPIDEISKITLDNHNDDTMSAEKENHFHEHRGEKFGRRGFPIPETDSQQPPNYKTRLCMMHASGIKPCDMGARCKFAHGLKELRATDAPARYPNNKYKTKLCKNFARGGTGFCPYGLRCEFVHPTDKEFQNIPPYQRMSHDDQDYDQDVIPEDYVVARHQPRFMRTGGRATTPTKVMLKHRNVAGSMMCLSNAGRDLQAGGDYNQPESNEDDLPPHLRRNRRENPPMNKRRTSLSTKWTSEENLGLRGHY

[8] = test system: HEK293; experiment: viability loss in HEK293T cells – cell-based, ATP luminescence, cherry-pick samples, cytotoxicity control, dose response (AID 687005); type: functional; conditions: Homo sapiens;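 note: cells exposed to compound for 48 hours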
[9] = HEK293 Cytotoxicity Assay Measured in Cell-Based System Using Plate Reader - 7071-01_Inhibitor_Dose_CherryPick_Activity_Set2.; type: functional
[10] = target: Heat shock protein HSP 90-alpha (Homo sapiens, UniProt P07900); type: functional, organism-based
[11] = target: T7, SUMO-activating enzyme (Homo sapiens, UniProt Q9UBT2); experiment: blockers of UBC9-mediated SUMO conjugation – biochemical, AlphaScreen, SUMOylation inhibitor project, confirmation (AID 2018); type: functional
[12] = Luminescence Cell-Based Dose Confirmation HTS to Identify Inhibitors of Platelet Dense Granule Release. [Related pubchem assays: 1663 (Primary HTS), 1678 (Summary of Project)]; type: functional
[13] = target: Luciferin 4-monooxygenase (Photinus pyralis, UniProt P08659); experiment: inhibition of purified Photinus pyralis luciferase – biochemical, luminescence, dose response (AID 1891)
[14] = target: 1-phosphatidylinositol 4,5-bisphosphate phosphodiesterase gamma-1 (Homo sapiens, UniProt P19174); experiment: Counterscreen for inhibitors of phospholipase C isozymes (PLC-B3): Fluorescence-based biochemical high throughput dose response assay to identify inhibitors of phospholipase C isozymes (PLC-gamma1).
[15] = target: 1-phosphatidylinositol 4,5-bisphosphate phosphodiesterase beta-3 (Homo sapiens, UniProt Q01970); experiment: Fluorescence-based biochemical high throughput dose response assay to identify inhibitors of phospholipase C isozymes (PLC-B3).
[16] = target: T7, SUMO-activating enzyme; experiment: blockers of SAE1/SAE2–UBC9 SUMO transfer – biochemical, HTRF, uHTS, primary screen (AID 2006); type: protein-complex assay
[17] = target: Galanin receptor type 3 (Homo sapiens, UniProt O60755); experiment: Fluorescence-based cell-based primary high throughput dose response assay to identify antagonists of the Galanin Receptor 3 (GalR3).; type: functional
[18] = off-target signal loss in HeLa-CEM21 co-culture – HeLa F-luc CTL cells, cherry-picked, counter-screen for HIV-1 Env fusion inhibitor project, dose response (AID 652040); type: functional, cell-based;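 note: potency for signal decrease marking cytotoxic or nonspecific inhibition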
[19] = non-specific 3'UTR reporter inhibition in Clone20-Shn3RL – cell-based, Renilla luciferase, cherry-picked, counter-screen for Shn3 inhibitor project, dose response (AID 624133); type: functional
[20] = loss of viability in HepG2 cells – cell-based, CellTiter-Glo, cherry-picked, cytotoxicity control for Shn3 inhibitor project, dose response (AID 624134); type: functional
[21] = blockers of HIV-1 ZM109 envelope-driven cell-cell fusion – HeLa effector, CEM target cells, luciferase, cherry-pick, dose response (AID 652058); type: functional, cell-based;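 note: luciferase signal from HIV-1 Env mediated cell-cell fusion of effector and target cells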
[22] = cells; type: functional, cell-based; conditions: HEK-CNG
[23] = reduction of Shn3 3'UTR-driven luciferase in osteoblasts – cell-based, Clone20 osteoblasts, firefly luciferase, cherry-picked, dose response (AID 624132); type: functional;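 note: firefly luciferase luminescence from reporter carrying the Shn3 3'UTR in osteoblasts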
[24] = target: COUP transcription factor 2 (Homo sapiens, UniProt P24468); experiment: Luminescence-based cell-based high throughput dose response assay to identify inhibitors of COUP-TFII (NR2F2).; type: functional;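 note: HEK293 cells transiently cotransfected with COUP-TFII expression vector and reporter; luciferase reporter luminescence driven by COUP-TFII from the pX2-168 reporter plasmid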
[25] = blockers of HIV-1 envelope-mediated cell-cell fusion – cherry-pick, dose response (AID 652057); type: functional, cell-based
[26] = HIV-1 AD8 envelope cell-cell fusion blockers – cherry-pick, dose response (AID 652062); type: functional, cell-based;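 note: luciferase signal from cell-cell fusion driven by HIV-1 clade B AD8 Env; potency is for inhibitors of fusion seen as a drop in luminescence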
[27] = blockers of bursicon-stimulated LGR2 cAMP reporter – cell-based, HEK293, CRE-luciferase reporter, cherry pick, set 2, dose response (AID 743343); type: functional;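 note: transfected cells were stimulated with diluted bursicon conditioned medium after compound addition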
[28] = blockade of melanocortin 4 receptor signaling – cell-based, plate reader, cherry pick, counter-screen for LGR2 antagonist project, dose response (AID 743444); type: functional;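 note: transfected HEK 293 cells stimulated with alpha-MSH peptide; potency of inhibitors of the alpha-MSH evoked signal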
[29] = toxicity toward HepG2 liver cells – cell-based, plate reader, cherry-pick, antagonist series, cytotoxicity control, dose response (AID 743416); type: functional
[30] = test system: HEK293; experiment: EBV LMP1 TES2 canonical NF-kB signalling blockers – cell-based, HEK293, luciferase, cherry-pick, dose response (AID 588343); type: functional; conditions: Homo sapiens
[31] = viability loss in HEK293 cells – cell-based, plate reader, cherry-picked samples, cytotoxicity control, dose response (AID 743446); type: functional
[32] = A549 cell cytotoxicity, dose response, cytotoxicity control, plate reader, cherry-pick, antagonist series (AID 743412); type: functional, cell-based
[33] = target: T8, Oxysterols receptor LXR-beta (Homo sapiens, UniProt P55055); type: functional, cell-based;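 note: agonist activity at LXR measured by a cell-based luminescence readout across a dose range, run as a counterscreen for daf-12 agonists; HEK293 cells with Gal4-LXR fusion and GAL4-driven luciferase reporter; potency for activation of Gal4-LXR reporter so compounds are agonists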
T8 sequence (P55055 whole entry): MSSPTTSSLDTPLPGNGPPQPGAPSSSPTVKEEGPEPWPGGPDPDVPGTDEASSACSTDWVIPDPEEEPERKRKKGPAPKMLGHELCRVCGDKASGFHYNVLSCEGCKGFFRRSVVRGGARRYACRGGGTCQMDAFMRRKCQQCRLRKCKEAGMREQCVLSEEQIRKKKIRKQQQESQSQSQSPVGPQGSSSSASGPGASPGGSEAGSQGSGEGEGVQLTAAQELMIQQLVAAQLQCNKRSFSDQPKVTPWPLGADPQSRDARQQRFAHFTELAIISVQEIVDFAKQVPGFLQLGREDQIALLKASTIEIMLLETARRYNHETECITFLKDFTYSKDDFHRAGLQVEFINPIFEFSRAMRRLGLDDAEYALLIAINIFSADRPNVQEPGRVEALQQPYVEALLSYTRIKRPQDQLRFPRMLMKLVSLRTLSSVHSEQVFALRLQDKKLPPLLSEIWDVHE

T7 sequence (Q9UBE0 whole entry): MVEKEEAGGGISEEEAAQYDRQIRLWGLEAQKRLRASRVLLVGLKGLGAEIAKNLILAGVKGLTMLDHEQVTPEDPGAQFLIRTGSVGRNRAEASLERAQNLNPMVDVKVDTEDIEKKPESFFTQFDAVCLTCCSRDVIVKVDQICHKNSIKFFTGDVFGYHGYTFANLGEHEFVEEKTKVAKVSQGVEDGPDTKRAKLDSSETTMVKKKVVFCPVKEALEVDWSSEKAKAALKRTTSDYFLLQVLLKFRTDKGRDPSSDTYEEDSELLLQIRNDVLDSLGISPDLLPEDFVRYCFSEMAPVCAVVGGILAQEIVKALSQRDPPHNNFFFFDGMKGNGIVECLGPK
T7 sequence (Q9UBT2 whole entry): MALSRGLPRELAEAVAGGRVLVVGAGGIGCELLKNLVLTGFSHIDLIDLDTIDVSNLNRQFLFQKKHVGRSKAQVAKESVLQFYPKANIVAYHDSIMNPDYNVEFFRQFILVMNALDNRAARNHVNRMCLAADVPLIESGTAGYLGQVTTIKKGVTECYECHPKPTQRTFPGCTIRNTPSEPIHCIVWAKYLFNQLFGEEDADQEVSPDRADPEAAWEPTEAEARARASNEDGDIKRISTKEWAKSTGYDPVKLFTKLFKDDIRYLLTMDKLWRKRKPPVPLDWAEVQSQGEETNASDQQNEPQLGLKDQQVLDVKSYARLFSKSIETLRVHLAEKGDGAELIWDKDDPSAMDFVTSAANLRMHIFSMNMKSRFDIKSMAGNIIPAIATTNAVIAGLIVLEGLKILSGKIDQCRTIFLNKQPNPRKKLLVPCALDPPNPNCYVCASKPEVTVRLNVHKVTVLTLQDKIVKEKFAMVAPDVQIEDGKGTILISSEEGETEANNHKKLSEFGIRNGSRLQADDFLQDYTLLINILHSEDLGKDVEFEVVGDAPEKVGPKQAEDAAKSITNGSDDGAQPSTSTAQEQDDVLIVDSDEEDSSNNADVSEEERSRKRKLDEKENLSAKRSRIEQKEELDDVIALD
Chain of 1-phosphatidylinositol 4,5-bisphosphate phosphodiesterase beta-3 (Q01970 whole entry): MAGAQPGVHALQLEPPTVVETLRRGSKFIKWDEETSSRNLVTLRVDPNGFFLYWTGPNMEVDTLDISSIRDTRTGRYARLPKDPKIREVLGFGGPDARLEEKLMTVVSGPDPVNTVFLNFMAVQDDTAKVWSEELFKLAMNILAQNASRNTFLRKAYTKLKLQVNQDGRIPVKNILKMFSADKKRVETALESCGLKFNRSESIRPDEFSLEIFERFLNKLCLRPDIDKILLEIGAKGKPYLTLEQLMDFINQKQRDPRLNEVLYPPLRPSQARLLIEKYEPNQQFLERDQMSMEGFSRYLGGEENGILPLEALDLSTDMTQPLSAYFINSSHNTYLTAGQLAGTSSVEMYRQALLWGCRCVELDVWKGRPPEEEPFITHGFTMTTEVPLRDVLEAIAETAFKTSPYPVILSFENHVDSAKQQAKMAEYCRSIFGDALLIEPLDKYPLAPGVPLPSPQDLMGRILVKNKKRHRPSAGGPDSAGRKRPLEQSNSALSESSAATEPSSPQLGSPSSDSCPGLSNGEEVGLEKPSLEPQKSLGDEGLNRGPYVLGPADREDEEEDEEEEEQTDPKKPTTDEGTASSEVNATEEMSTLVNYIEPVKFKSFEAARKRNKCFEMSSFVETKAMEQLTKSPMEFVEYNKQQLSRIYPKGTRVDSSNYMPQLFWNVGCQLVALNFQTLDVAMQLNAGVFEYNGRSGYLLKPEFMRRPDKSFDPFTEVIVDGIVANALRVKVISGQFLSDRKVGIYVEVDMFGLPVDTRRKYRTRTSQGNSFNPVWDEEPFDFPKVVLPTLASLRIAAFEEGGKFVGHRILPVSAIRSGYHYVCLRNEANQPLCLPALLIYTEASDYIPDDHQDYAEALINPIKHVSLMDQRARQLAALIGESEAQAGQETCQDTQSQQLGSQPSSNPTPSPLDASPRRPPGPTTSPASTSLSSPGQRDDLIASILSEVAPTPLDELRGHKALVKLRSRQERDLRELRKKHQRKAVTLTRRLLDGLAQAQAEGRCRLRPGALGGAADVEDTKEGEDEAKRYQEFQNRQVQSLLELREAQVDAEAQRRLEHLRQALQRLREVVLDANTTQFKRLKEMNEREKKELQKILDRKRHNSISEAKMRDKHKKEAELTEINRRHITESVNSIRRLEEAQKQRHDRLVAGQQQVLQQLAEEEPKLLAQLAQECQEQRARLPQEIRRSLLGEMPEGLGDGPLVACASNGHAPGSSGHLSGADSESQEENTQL
Chain of Caspase-7 (P55210 24-198 limits assumed): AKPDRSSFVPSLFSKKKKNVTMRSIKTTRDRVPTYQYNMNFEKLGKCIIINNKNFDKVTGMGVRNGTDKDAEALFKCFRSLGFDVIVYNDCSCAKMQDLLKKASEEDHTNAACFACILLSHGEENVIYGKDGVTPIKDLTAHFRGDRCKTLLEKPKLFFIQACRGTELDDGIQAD
Chain of Caspase-7 (P55210 207-303 limits assumed): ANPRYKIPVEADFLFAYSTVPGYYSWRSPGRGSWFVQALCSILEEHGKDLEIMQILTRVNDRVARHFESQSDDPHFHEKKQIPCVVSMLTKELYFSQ
Chain of Luciferin 4-monooxygenase (P08659 whole entry): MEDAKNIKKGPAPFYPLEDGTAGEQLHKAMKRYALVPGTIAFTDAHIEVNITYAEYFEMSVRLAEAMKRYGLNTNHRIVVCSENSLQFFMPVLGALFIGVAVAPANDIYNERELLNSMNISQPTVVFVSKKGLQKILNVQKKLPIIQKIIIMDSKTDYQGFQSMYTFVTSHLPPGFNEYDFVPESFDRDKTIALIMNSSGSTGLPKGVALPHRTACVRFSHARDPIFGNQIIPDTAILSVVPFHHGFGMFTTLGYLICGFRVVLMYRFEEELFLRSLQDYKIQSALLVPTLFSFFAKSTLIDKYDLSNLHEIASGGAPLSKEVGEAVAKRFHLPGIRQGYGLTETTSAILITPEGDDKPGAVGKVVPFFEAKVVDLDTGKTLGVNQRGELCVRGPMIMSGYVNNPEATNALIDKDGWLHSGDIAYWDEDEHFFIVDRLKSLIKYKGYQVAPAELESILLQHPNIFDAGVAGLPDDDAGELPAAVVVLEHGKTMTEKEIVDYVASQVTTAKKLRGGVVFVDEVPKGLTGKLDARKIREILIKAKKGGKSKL
Chain of 1-phosphatidylinositol 4,5-bisphosphate phosphodiesterase gamma-1 (P19174 whole entry): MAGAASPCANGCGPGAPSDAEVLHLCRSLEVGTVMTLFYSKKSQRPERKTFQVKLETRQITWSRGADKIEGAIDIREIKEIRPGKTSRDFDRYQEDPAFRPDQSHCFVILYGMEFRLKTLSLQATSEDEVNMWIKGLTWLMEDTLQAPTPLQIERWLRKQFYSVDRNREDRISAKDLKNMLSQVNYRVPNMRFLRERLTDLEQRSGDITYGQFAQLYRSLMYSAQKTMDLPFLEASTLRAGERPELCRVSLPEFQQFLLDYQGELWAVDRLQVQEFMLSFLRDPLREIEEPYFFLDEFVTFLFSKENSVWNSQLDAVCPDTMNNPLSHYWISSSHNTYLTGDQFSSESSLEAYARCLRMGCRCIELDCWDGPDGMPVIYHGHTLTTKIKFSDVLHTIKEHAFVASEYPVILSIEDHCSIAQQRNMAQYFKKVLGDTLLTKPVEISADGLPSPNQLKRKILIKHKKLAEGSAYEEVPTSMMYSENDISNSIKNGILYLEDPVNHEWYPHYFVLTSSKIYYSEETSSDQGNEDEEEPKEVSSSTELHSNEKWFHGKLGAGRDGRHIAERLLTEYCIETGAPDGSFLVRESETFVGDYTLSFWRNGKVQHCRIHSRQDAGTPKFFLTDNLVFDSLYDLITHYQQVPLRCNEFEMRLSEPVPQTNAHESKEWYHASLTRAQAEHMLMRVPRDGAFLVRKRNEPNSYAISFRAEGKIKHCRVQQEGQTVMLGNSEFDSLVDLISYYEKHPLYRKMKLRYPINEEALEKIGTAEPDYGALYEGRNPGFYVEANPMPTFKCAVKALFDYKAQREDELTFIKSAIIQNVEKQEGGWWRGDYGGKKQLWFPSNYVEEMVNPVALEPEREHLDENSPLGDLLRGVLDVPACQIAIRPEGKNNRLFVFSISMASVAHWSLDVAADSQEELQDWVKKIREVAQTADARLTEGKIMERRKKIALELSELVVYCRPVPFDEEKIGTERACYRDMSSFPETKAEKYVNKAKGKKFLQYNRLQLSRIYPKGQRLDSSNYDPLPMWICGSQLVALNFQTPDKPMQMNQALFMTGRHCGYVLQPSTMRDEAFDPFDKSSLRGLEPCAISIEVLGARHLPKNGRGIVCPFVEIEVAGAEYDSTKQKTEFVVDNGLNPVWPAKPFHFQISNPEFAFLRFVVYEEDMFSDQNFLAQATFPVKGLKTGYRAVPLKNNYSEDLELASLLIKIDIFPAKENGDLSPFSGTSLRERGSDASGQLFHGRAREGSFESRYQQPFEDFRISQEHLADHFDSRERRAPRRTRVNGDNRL
Chain of COUP transcription factor 2 (P24468 whole entry, the tested form may be a part): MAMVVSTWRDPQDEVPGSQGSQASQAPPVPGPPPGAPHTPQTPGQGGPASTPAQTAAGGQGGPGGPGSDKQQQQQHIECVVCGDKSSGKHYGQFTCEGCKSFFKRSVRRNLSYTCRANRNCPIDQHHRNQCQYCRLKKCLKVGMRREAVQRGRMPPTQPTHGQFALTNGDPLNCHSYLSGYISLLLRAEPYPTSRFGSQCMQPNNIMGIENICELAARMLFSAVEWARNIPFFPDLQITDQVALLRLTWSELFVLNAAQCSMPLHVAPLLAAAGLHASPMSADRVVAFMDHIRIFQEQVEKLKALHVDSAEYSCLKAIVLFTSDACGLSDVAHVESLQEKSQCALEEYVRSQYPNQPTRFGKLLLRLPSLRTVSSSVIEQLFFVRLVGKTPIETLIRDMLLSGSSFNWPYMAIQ

Cc1cc(C=O)c(C)n1-c1ccc(Cl)c(C(=O)O)c1
active: AC50 [1] 43.1 µM | AC50 [2] 10.6 µM | AC50 [4] 1.47 µM | IC50 [5] 4.61 µM
inactive: AC50 [3] > 70 µM
> 300 µM (not active): EC50 [6] | EC50 [7]

O=C(Nc1ccccc1)N1CCCCN2[C@H](C1)[C@H](c1ccc(C#CC3CC3)cc1)[C@@H]2CO
active: AC50 [8] 40.1 µM | AC50 [9] 40.1 µM

Nc1ncnc2c1ncn2[C@@H]1O[C@H](COP(=O)(O)O)[C@@H](O)[C@@H]1O
inactive: IC50 [15] > 122 µM
active: AC50 [10] 1.92 µM | IC50 [11] 7.95 µM | EC50 [12] 946 nM | EC50 [13] 1.08 µM | IC50 [14] 8.71 µM | IC50 [16] 16.6 µM

c1ccc(CNc2ncnc3ccccc23)cc1
inactive: EC50 [22] > 29.9 µM
active: IC50 [17] 1.25 µM | AC50 [18] 15 µM | AC50 [19] 18.9 µM | AC50 [20] 5.24 µM | AC50 [21] 3.66 µM | AC50 [23] 1.5 µM | IC50 [24] 9.32 µM | AC50 [25] 10.7 µM | AC50 [26] 4.91 µM

O=C(Nc1ccc2c(c1)OCCO2)c1ccccn1
active: AC50 [27] 3.29 µM | AC50 [28] 2.75 µM | AC50 [29] 48.5 µM | AC50 [30] 2.3 µM | AC50 [31] 27.3 µM | AC50 [32] 19.9 µM

Cc1ccc2nc(C)/c(=N\O)c(C)nc2c1
inactive: EC50 [33] > 67.6 µM
